The source of these data is patent US20250243219A1, “MACROCYCLIC COMPOUNDS AND USES THEREOF” (Cypralis Limited, priority 2022, published 2025).

The target in one data set is cyclophilin A (Homo sapiens (Human), UniProt P62937). The data set can be described thus: Functional peptidyl prolyl isomerase (PPIase) spectrophotometric assay, cyclophilin A. To be noted: first value of CypA/D cell. It is filed as biochemical. The method, boiled down: (§1)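 Cuvette-based UV/Vis assay of PPIase-catalysed cis-to-trans isomerisation of a peptide substrate. First-order rate constants fitted to absorbance, background rate subtracted. Ki derived from rate constant versus inhibitor concentration, typically 6-point curves in duplicate.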
cyclophilin A, sequence (P62937 whole entry, species assumed): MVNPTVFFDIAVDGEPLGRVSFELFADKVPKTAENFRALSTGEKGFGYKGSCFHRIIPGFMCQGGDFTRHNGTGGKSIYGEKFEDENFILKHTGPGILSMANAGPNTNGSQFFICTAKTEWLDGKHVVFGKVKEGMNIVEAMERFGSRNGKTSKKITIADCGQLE

Another data set addresses cyclophilin D (Homo sapiens (Human), UniProt P30405). The data set can be described thus: Functional peptidyl prolyl isomerase (PPIase) spectrophotometric assay, cyclophilin D. Format: biochemical. The settings on record: second value of CypA/D cell; read-out: Ki CypD. The method, boiled down: as §1
Data set [1] in a line: Blood-brain barrier penetration, intravenous dosing. It is filed as in vivo, rodents (mice or rats). To be noted: 3 mg/kg intravenous; for Brain concentration / Plasma concentration: at 30 min. The protocol:
Test compounds were administered to rodents (mice or rats) either orally, subcutaneously or intravenously. To determine blood or plasma concentrations blood samples were taken at different time points and analysed for the concentration of test compound by LC/MS. Brain concentrations were measured by sacrificing animals and LC/MS analysis of brain homogenate.
The results for Compounds (2), (19), (6) and (27) are summarised in Table 6 showing concentrations of the Compounds in blood plasma and the brain.

In data set [2] the test system is permeabilised HepG2 cells. The data set can be described thus: Calcium retention capacity (CRC) assay in permeabilised HepG2 cells (MPTP opening). The settings on record: compound at 10 μM; for CRC [10 μM]: digitonin permeabilised HepG2 cells; for CRC [10 μM] (ratio vs CsA): normalised to cyclosporin A, value in brackets. The arrangement: CRC [10 μM]: unit not given here. It is filed as cell-based, human. The method, boiled down:
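Digitonin-permeabilised HepG2 cells received trains of calcium pulses (typically 5 μM) monitored with Calcium Green-5N until buffering failed, marking permeability transition. Runs with and without compound; calcium retained at 10 μM compound expressed as ratio versus cyclosporin A positive control.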

Another data set has as its system SH-SY5Y cells. The data set can be described thus: Thapsigargin treated cell death assay in SH-SY5Y cells. Format: cell-based, human. To be noted: compound at 10 μM; positive = protection from cell death, negative = compound toxicity. The essentials: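 SH-SY5Y neuroblastoma cells given compound (typically 1, 3 and 10 μM, triplicate) 30 min before thapsigargin, with cyclosporin A (3 and 10 μM) as positive control. Cell death read kinetically over 24 h by CellTox Green DNA-binding fluorescence; values are % recovery at 10 μM, usually at 8 h, positive meaning protection.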

Molecules are shown by their SMILES. A value given as a limit tells only on which side of the number the result lay.

cyclophilin D, sequence (P30405 30-207, species assumed): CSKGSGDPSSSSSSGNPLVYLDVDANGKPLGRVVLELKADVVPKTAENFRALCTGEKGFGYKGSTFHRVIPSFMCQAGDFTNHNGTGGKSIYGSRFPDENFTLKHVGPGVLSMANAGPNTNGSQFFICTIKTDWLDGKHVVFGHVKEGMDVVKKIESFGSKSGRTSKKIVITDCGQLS

In the case of `CC(C)[C@@H]1OC(=O)C(C)(C)C/C=C/c2ccc3ccc(nc3c2)N(C)NC(=O)[C@@H]2CCCN(N2)C(=O)[C@H](C)NC1=O` [Compound (6)], the inhibition constant Ki on cyclophilin A is > 10000 nM. Also, the Ki at cyclophilin D was > 10 nM. Besides, in data set [1], the Blood-brain barrier passage entry is listed as “passed the blood-brain barrier”, the Brain concentration worked out at 197 ng/mL and the Plasma concentration is recorded as 1216 ng/mL.

For `CC(C)[C@@H]1OC(=O)C2(/C=C/c3ccc4ccc(nc4c3)N(C)N(C)C(=O)[C@@H]3CCCN(N3)C(=O)[C@H](C)NC1=O)COCOC2` [(19)], at cyclophilin A, the Ki was 23 nM. For the same compound, the Ki at cyclophilin D was 150 nM. Besides, in data set [2], the “CRC [10 μM]” value stood at 30 and the “CRC [10 μM] (ratio vs CsA)” value was determined as 0.77. In data set [1], the Blood-brain barrier passage result is “passed the blood-brain barrier”, the Brain concentration amounted to 116 ng/mL and the Plasma concentration came to 74 ng/mL.

As to `CC(C)[C@@H]1OC(=O)C(C)(C)/C=C/c2ccc3ccc(nc3c2)N(C)NC(=O)[C@@H]2CCCN(N2)C(=O)[C@H](CCC(=O)N2CCN(C)CC2)NC1=O` [Compound (70)], the Ki on cyclophilin A was 6.7 nM; at cyclophilin D it was 53 nM. The “CRC [10 μM]” value in data set [2] turned out to be 25. Moreover, the “CRC [10 μM] (ratio vs CsA)” value in data set [2] is reported as 1.00. Further, the “SYSY [10 μM] % recovery” value with SH-SY5Y cells is reported as 44%.

`CC(C)[C@H]1OC(=O)C/C=C/c2ccc3ccc(nc3c2)N(C)NC(=O)[C@@H]2CCCN(N2)C(=O)[C@H](C)NC1=O` (stereo in doubt) [Compound (1)] yielded an inhibitory constant (Ki) at cyclophilin A of 25 nM. For the same compound, the Ki at cyclophilin D is 54 nM. Further, in data set [2], the “CRC [10 μM]” value came out at 35 and the “CRC [10 μM] (ratio vs CsA)” value was determined as 0.95. The “SYSY [10 μM] % recovery” value with SH-SY5Y cells is on record as 8.4%.

Take `C[C@@H]1NC(=O)C(CCc2ccccc2)OC(=O)C(C)(C)/C=C/c2ccc3ccc(nc3c2)N(C)NC(=O)[C@@H]2CCCN(N2)C1=O` (single isomer, unassigned) [(27)]: in data set [1], the Blood-brain barrier passage result is recorded as “passed the blood-brain barrier”, the Brain concentration is listed as 285 ng/mL and the Plasma concentration was determined as 1382 ng/mL.

On cyclophilin A, `C[C@@H]1NC(=O)[C@H](CC2CCCNC2)OC(=O)C(C)(C)/C=C/c2ccc3ccc(nc3c2)N(C)NC(=O)[C@@H]2CCCN(N2)C1=O` (stereo partly drawn) [Compound (56)] returned a Ki of 295 nM. Besides, the Ki at cyclophilin D was determined as 56.6 nM. Also, in data set [2], the “CRC [10 μM]” value turned out to be 8 and the “CRC [10 μM] (ratio vs CsA)” value was 0.36. In addition, the “SYSY [10 μM] % recovery” value in the data set on SH-SY5Y cells amounted to 15%.
